Measured values from ChEMBL document CHEMBL3045966, “Synthesis and Selective Bioactivity of New Pyrazolecarboxamide Derivatives” (J Pestic Sci, 1999).

Legend:
Tetranychus urticae [1] = assay: Acaricidal activity against Tetranychus urticae (two-spotted spider mite) reared on kidney bean leaves followed by compound exposure through leaf dipping assessed as mite mortality at 300 ppm measured after 3 days; assay type: functional; conditions: foliar, 72 h
[2] = Toxicity against Oryzias latipes (Japanese medaka) assessed as fish mortality at 0.05 ppm measured after 3 days; assay type: organism-based; conditions: in vivo
[3] = Toxicity against Oryzias latipes (Japanese medaka) assessed as fish mortality at 0.5 ppm measured after 3 days; assay type: organism-based; conditions: in vivo
Tetranychus urticae [4] = assay: Acaricidal activity against Tetranychus urticae (two-spotted spider mite) reared on kidney bean leaves followed by compound exposure through leaf dipping assessed as mite mortality at 10 ppm measured after 3 days; assay type: functional; conditions: foliar, 72 h
Tetranychus urticae [5] = assay: Acaricidal activity against Tetranychus urticae (two-spotted spider mite) reared on kidney bean leaves followed by compound exposure through leaf dipping assessed as mite mortality at 3 ppm measured after 3 days; assay type: functional; conditions: foliar, 72 h
Tetranychus urticae [6] = assay: Acaricidal activity against Tetranychus urticae (two-spotted spider mite) reared on kidney bean leaves followed by compound exposure through leaf dipping assessed as mite mortality at 30 ppm measured after 3 days; assay type: functional; conditions: foliar, 72 h

Structure (SMILES)	mortality at 300 ppm (Tetranychus urticae [1])	mortality at 72 h, 0.05 ppm [2]	mortality at 72 h, 0.5 ppm [3]	mortality at 10 ppm (Tetranychus urticae [4])	mortality at 3 ppm (Tetranychus urticae [5])	mortality at 30 ppm (Tetranychus urticae [6])
CCOCCc1ccc(OCCN(C(=O)CC)C(=O)c2c(Cl)c(C)nn2C)c(C)c1	100%	0%	100%	100%	0%	100%
CCOCCc1ccc(OCCN(C(C)=O)C(=O)c2c(Cl)cnn2C)c(C)c1	0%	0%	0%	–	–	0%
CCOCCc1ccc(OCCN(C(C)=O)C(=O)c2c(Cl)c(C(C)(C)C)nn2C)c(C)c1	80%	0%	0%	–	–	0%
CCOCCc1ccc(OCCN(C(=O)c2cc(C(C)(C)C)nn2C)C(=O)C2CC2)c(C)c1	100%	0%	0%	30%	0%	100%
CCOCCc1ccc(OCCN(C(=O)c2cc(C(C)(C)C)nn2C)C(=O)C(C)C)c(C)c1	100%	0%	0%	100%	0%	100%
CCOCCc1ccc(OCCN(C(C)=O)C(=O)c2c(Cl)c(C)nn2C)c(C)c1	100%	1%	100%	80%	30%	100%
CCCCCC(=O)N(CCOc1ccc(CCOCC)cc1C)C(=O)c1c(Cl)c(C)nn1C	100%	1%	100%	80%	30%	100%
CCOCCc1ccc(OCCN(C(C)=O)C(=O)c2c(Cl)c(CC)nn2C)c(C)c1	100%	51%	100%	30%	0%	100%
CCOCCc1ccc(OCCN(C(C)=O)C(=O)c2cc(C(C)C)nn2C)c(C)c1	100%	0%	100%	30%	0%	100%
CCOCCc1ccc(OCCN(C(C)=O)C(=O)c2cc(C)nn2C)c(C)c1	100%	0%	1%	0%	0%	100%
CCOCCc1ccc(OCCN(C(=O)c2ccccc2)C(=O)c2cc(C(C)(C)C)nn2C)c(C)c1	100%	0%	0%	0%	0%	100%
CCOCCc1ccc(OCCN(C(C)=O)C(=O)c2cc(C3CC3)nn2C)c(C)c1	100%	0%	51%	–	–	0%
CCOCCc1ccc(OCCNC(=O)c2cc(C)nn2C)c(C)c1	30%	0%	0%	0%	0%	0%
CCCCCCCCCCC(=O)N(CCOc1ccc(CCOCC)cc1C)C(=O)c1c(Cl)c(C)nn1C	100%	0%	51%	0%	0%	100%
CCCC(=O)N(CCOc1ccc(CCOCC)cc1C)C(=O)c1c(Cl)c(C)cn1C	100%	0%	100%	30%	0%	100%
CCOCCc1ccc(OCCNC(=O)c2c(Cl)c(C(C)(C)C)nn2C)c(C)c1	30%	0%	0%	30%	0%	30%
CCOCCc1ccc(OCCNC(=O)c2cc(C(C)(C)C)nn2C)c(C)c1	100%	1%	100%	0%	0%	30%
CCOCCc1ccc(OCCNC(=O)c2cc(CC)nn2C)c(C)c1	100%	51%	100%	0%	0%	30%
CCCc1cc(C(=O)NCCOc2ccc(CCOCC)cc2C)n(C)n1	0%	1%	100%	0%	0%	0%
CCCc1cc(C(=O)N(CCOc2ccc(CCOCC)cc2C)C(C)=O)n(C)n1	100%	0%	51%	0%	0%	30%
CCCc1nn(C)c(C(=O)N(CCOc2ccc(CCOCC)cc2C)C(C)=O)c1Cl	0%	0%	100%	–	–	0%
CCOCCc1ccc(OCCNC(=O)c2c(Cl)c(C)nn2C)c(C)c1	100%	100%	100%	100%	0%	100%
CCOCCc1ccc(OCCN(C(C)=O)C(=O)c2cc(CC)nn2C)c(C)c1	100%	0%	100%	0%	0%	100%
CCOCCc1ccc(OCCN(C(C)=O)C(=O)c2cc(C(C)(C)C)nn2C)c(C)c1	100%	0%	1%	80%	0%	100%
CCOCCc1ccc(OCCNC(=O)c2c(Cl)c(CC)nn2C)c(C)c1	100%	100%	100%	100%	0%	100%
CCOCCc1ccc(OCCN(C(=O)CC)C(=O)c2cc(C(C)(C)C)nn2C)c(C)c1	100%	0%	1%	0%	0%	100%
